Experimental data published in PubChem BioAssay (NCI).
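Exposure lasted 48 hours, with cells grown in 96-well plates and compounds tested at five concentrations. TGI: total growth inhibition.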

Columns and labels:
Experiment in all cases: growth of human tumour cells (NCI), 48 h
SF-539 CNS = system: SF-539 CNS
CCRF-CEM leukemia = system: CCRF-CEM leukemia
ACHN renal = system: ACHN renal
MDA-MB-435 = system: MDA-MB-435
SK-MEL-5 melanoma = system: SK-MEL-5 melanoma
PC-3 prostate = system: PC-3 prostate
MDA-N = system: MDA-N
NCI-H23 lung = system: NCI-H23 lung
SF-295 CNS = system: SF-295 CNS
RXF 393 renal = system: RXF 393 renal
HL-60(TB) leukemia = system: HL-60(TB) leukemia
DU-145 prostate = system: DU-145 prostate
MCF7 breast = system: MCF7 breast
A549 NSCLC = system: A549 NSCLC
OVCAR-3 ovarian = system: OVCAR-3 ovarian
A498 renal = system: A498 renal
TK-10 renal = system: TK-10 renal
NCI/ADR-RES ovarian = system: NCI/ADR-RES ovarian
HS 578T breast = system: HS 578T breast
U251 CNS = system: U251 CNS
KM12 colon = system: KM12 colon
EKVX NSCLC = system: EKVX NSCLC
SW-620 colon = system: SW-620 colon
HCT-15 colon = system: HCT-15 colon
OVCAR-4 ovarian = system: OVCAR-4 ovarian
UO-31 renal = system: UO-31 renal
MALME-3M melanoma = system: MALME-3M melanoma
CAKI-1 renal = system: CAKI-1 renal
UACC-257 melanoma = system: UACC-257 melanoma
OVCAR-8 ovarian = system: OVCAR-8 ovarian
HOP-92 NSCLC = system: HOP-92 NSCLC
SK-MEL-28 melanoma = system: SK-MEL-28 melanoma
NCI-H460 lung = system: NCI-H460 lung
HCT-116 colon = system: HCT-116 colon
HT29 colon = system: HT29 colon
SNB-75 CNS = system: SNB-75 CNS
M14 melanoma = system: M14 melanoma
OVCAR-5 ovarian = system: OVCAR-5 ovarian
SN12C renal = system: SN12C renal
SNB-19 CNS = system: SNB-19 CNS
RPMI-8226 leukemia = system: RPMI-8226 leukemia
LOX IMVI melanoma = system: LOX IMVI melanoma
K-562 leukemia = system: K-562 leukemia
SF-268 CNS = system: SF-268 CNS
HCC-2998 colon = system: HCC-2998 colon
NCI-H226 lung = system: NCI-H226 lung
786-0 renal = system: 786-0 renal
NCI-H522 lung = system: NCI-H522 lung
UACC-62 melanoma = system: UACC-62 melanoma
SR leukemia = system: SR leukemia
SK-OV-3 ovarian = system: SK-OV-3 ovarian
BT-549 breast = system: BT-549 breast
MDA-MB-231 breast = system: MDA-MB-231 breast
COLO 205 colon = system: COLO 205 colon
T-47D breast = system: T-47D breast
MOLT-4 leukemia = system: MOLT-4 leukemia
SK-MEL-2 melanoma = system: SK-MEL-2 melanoma
HOP-62 NSCLC = system: HOP-62 NSCLC
IGROV1 ovarian = system: IGROV1 ovarian

In the case of `c1ccc(NNN2NC(c3ccccc3)C2c2ccccc2)cc1` (stereo not drawn), the TGI (SF-539 CNS) is reported as greater than 100 µM, the TGI (CCRF-CEM leukemia) is reported as greater than 100 µM and the TGI (ACHN renal) is reported as greater than 100 µM. For the same molecule, the TGI (MDA-MB-435) was greater than 100 µM, the TGI (SK-MEL-5 melanoma) was greater than 100 µM and the TGI (PC-3 prostate) was greater than 100 µM. It also gave a TGI (MDA-N) greater than 100 µM, a TGI (NCI-H23 lung) greater than 100 µM and a TGI (SF-295 CNS) greater than 100 µM. It also gave a TGI (RXF 393 renal) greater than 100 µM, a TGI (HL-60(TB) leukemia) greater than 100 µM and a TGI (DU-145 prostate) greater than 100 µM. For the same molecule, the TGI (MCF7 breast) was greater than 100 µM, the TGI (A549 NSCLC) was greater than 100 µM and the TGI (OVCAR-3 ovarian) was greater than 100 µM. The TGI (A498 renal) was greater than 100 µM, the TGI (TK-10 renal) was greater than 100 µM and the TGI (NCI/ADR-RES ovarian) was greater than 100 µM. The TGI (HS 578T breast) was greater than 100 µM, the TGI (U251 CNS) was greater than 100 µM and the TGI (KM12 colon) was greater than 100 µM. The TGI (EKVX NSCLC) was greater than 100 µM, the TGI (SW-620 colon) was greater than 100 µM and the TGI (HCT-15 colon) was greater than 100 µM. The TGI (OVCAR-4 ovarian) was greater than 100 µM, the TGI (UO-31 renal) was greater than 100 µM and the TGI (MALME-3M melanoma) was greater than 100 µM. It also gave a TGI (CAKI-1 renal) greater than 100 µM, a TGI (UACC-257 melanoma) greater than 100 µM and a TGI (OVCAR-8 ovarian) greater than 100 µM. For the same molecule, the TGI (HOP-92 NSCLC) was greater than 100 µM, the TGI (SK-MEL-28 melanoma) was greater than 100 µM and the TGI (NCI-H460 lung) was greater than 100 µM. For the same molecule, the TGI (HCT-116 colon) was greater than 100 µM, the TGI (HT29 colon) was greater than 100 µM and the TGI (SNB-75 CNS) was greater than 100 µM. For the same molecule, the TGI (M14 melanoma) was greater than 100 µM, the TGI (OVCAR-5 ovarian) was greater than 100 µM and the TGI (SN12C renal) was greater than 100 µM. It also gave a TGI (SNB-19 CNS) greater than 100 µM, a TGI (RPMI-8226 leukemia) greater than 100 µM and a TGI (LOX IMVI melanoma) greater than 100 µM. For the same molecule, the TGI (K-562 leukemia) was greater than 100 µM, the TGI (SF-268 CNS) was greater than 100 µM and the TGI (HCC-2998 colon) was greater than 100 µM. For the same molecule, the TGI (NCI-H226 lung) was greater than 100 µM, the TGI (786-0 renal) was greater than 100 µM and the TGI (NCI-H522 lung) was greater than 100 µM. For the same molecule, the TGI (UACC-62 melanoma) was greater than 100 µM, the TGI (SR leukemia) was greater than 100 µM and the TGI (SK-OV-3 ovarian) was greater than 100 µM. For the same molecule, the TGI (BT-549 breast) was greater than 100 µM, the TGI (MDA-MB-231 breast) was greater than 100 µM and the TGI (COLO 205 colon) was greater than 100 µM. For the same molecule, the TGI (T-47D breast) was greater than 100 µM, the TGI (MOLT-4 leukemia) was greater than 100 µM and the TGI (SK-MEL-2 melanoma) was greater than 100 µM.
Molecule `COc1ccc(OC)c(N2C(=O)/C(=C\c3ccccc3)SC2c2cc(OC)c(OC)c(OC)c2)c1` (stereo not drawn) has a TGI (CCRF-CEM leukemia) greater than 100 µM, a TGI (ACHN renal) of 6.85 µM and a TGI (HOP-62 NSCLC) greater than 100 µM. The TGI (MDA-MB-435) was greater than 75 µM, the TGI (SK-MEL-5 melanoma) was greater than 100 µM and the TGI (PC-3 prostate) was greater than 100 µM. The TGI (MDA-N) was 52.1 µM, the TGI (NCI-H23 lung) was greater than 100 µM and the TGI (SF-295 CNS) was greater than 100 µM. For the same molecule, the TGI (RXF 393 renal) was greater than 31.4 µM, the TGI (HL-60(TB) leukemia) was greater than 100 µM and the TGI (DU-145 prostate) was greater than 100 µM. The TGI (MCF7 breast) was greater than 42.7 µM, the TGI (A549 NSCLC) was greater than 100 µM and the TGI (OVCAR-3 ovarian) was greater than 100 µM. The TGI (IGROV1 ovarian) was greater than 100 µM, the TGI (A498 renal) was greater than 100 µM and the TGI (TK-10 renal) was greater than 100 µM. For the same molecule, the TGI (NCI/ADR-RES ovarian) was greater than 100 µM, the TGI (HS 578T breast) was greater than 100 µM and the TGI (U251 CNS) was greater than 100 µM. The TGI (KM12 colon) was greater than 100 µM, the TGI (EKVX NSCLC) was greater than 100 µM and the TGI (SW-620 colon) was greater than 100 µM. The TGI (HCT-15 colon) was greater than 100 µM, the TGI (OVCAR-4 ovarian) was greater than 100 µM and the TGI (UO-31 renal) was greater than 100 µM. It also gave a TGI (MALME-3M melanoma) greater than 100 µM, a TGI (CAKI-1 renal) greater than 100 µM and a TGI (UACC-257 melanoma) greater than 100 µM. The TGI (OVCAR-8 ovarian) was greater than 100 µM, the TGI (HOP-92 NSCLC) was greater than 100 µM and the TGI (SK-MEL-28 melanoma) was greater than 100 µM. For the same molecule, the TGI (HCT-116 colon) was greater than 100 µM, the TGI (HT29 colon) was greater than 100 µM and the TGI (SNB-75 CNS) was greater than 100 µM. For the same molecule, the TGI (M14 melanoma) was greater than 100 µM, the TGI (OVCAR-5 ovarian) was greater than 100 µM and the TGI (SN12C renal) was greater than 100 µM. It also gave a TGI (SNB-19 CNS) greater than 100 µM, a TGI (RPMI-8226 leukemia) greater than 100 µM and a TGI (LOX IMVI melanoma) greater than 100 µM. The TGI (K-562 leukemia) was greater than 100 µM, the TGI (SF-268 CNS) was greater than 100 µM and the TGI (HCC-2998 colon) was greater than 100 µM. It also gave a TGI (NCI-H226 lung) greater than 100 µM, a TGI (786-0 renal) greater than 100 µM and a TGI (NCI-H522 lung) of 74.9 µM. The TGI (SR leukemia) was greater than 100 µM, the TGI (SK-OV-3 ovarian) was greater than 100 µM and the TGI (BT-549 breast) was greater than 100 µM. The TGI (MDA-MB-231 breast) was greater than 100 µM, the TGI (COLO 205 colon) was greater than 100 µM and the TGI (T-47D breast) was greater than 100 µM. The TGI (MOLT-4 leukemia) was greater than 100 µM and the TGI (SK-MEL-2 melanoma) was greater than 100 µM.
